Results as given in patent US8741917B2, “Benzo [C] phenanthridines as antimicrobial agents” (Rutgers, The State University of New Jersey, priority 2009, dated 2014).
Where two headings read alike, the source gives them in different places.

Assays:
MRSA = assay: Planktonic antibacterial broth microdilution assay; conditions: Staphylococcus aureus
Bacillus subtilis = assay: Planktonic antibacterial broth microdilution assay; type: cell-based; conditions: 24 hours continuous drug exposure
Bacillus subtilis FtsZ [1] = molecular target: T1, Bacillus subtilis FtsZ (Bacillus subtilis, UniProt P17865); assay: 90°-angle light scattering assay of FtsZ polymerization; type: biochemical; conditions: compound 40 μM; for Maximal Light Scattering: readout of extent of polymerization, no compound: 3.40; for Time to Reach Half-Maximal Light Scattering: readout of rate of polymerization, no compound: 91.6
Method: B[c]P inhibition of FtsZ polymerization can be tested using a 90°-angle light scattering assay for monitoring drug impact on FtsZ polymerization. This assay is premised on the increased light scattering properties of polymeric FtsZ relative to the monomeric form of the protein. To this end, the light scattering at 600 nm of 5 μM FtsZ is continuously monitored under polymerization conditions in the absence or presence of a B[c]P compound at concentrations ranging from 40 to 80 μM.
Polymerization is initiated by addition of 0.5 mM GTP. The rate and extent of FtsZ polymerization can be quantified by analyzing the light scattering profiles to derive maximal light scattering values (which provide a readout of the extent of polymerization) as well as the times required to reach half-maximal light scattering values (which provide a readout of the rate of polymerization).

[2] = tested on: Mycobacterium tuberculosis; assay: Planktonic antibacterial broth microdilution assay; type: cell-based; conditions: 24 hours continuous drug exposure
Enterococcus faecalis = assay: Planktonic antibacterial broth microdilution assay; type: cell-based; conditions: 24 hours continuous drug exposure
Staphylococcus aureus = assay: Planktonic antibacterial broth microdilution assay; type: cell-based; conditions: 24 hours continuous drug exposure
Bacillus subtilis FtsZ [3] = molecular target: T1, Bacillus subtilis FtsZ; assay: Fluorescence-based competition binding assay (displacement of BODIPY-GTPγS from FtsZ); conditions: FIG. 8; reduction reflects binding to FtsZ and release of BODIPY-GTPγS
Description: B[c]P binding to FtsZ can be tested using a fluorescence-based competition binding assay using purified FtsZ and a commercially available GTPγS analog where the nucleotide is covalently conjugated via its sulfur atom to the fluorescent dye BODIPY (DIPYrromethene BOron difluoride). Upon binding to FtsZ, BODIPY-GTPγS undergoes a dramatic increase in fluorescence emission intensity (I) at 510 nm. This binding-induced change in BODIPY-GTPγS fluorescence provides the dissociation constant (Kd-GTP) of the nucleotide for the protein through analysis of fluorescence titration profiles with the following formalism, which is predicated on a one-to-one binding stoichiometry:
[formula] I0 and I are the fluorescence emission intensities of BODIPY-GTPγS in the absence and presence of a given FtsZ concentration, respectively, I∞ is the fluorescence emission intensity of BODIPY-GTPγS in the presence of an infinite FtsZ concentration, and [GTP]tot and [FtsZ]tot are the total concentrations of BODIPY-GTPγS and FtsZ, respectively. […]
I0 and I are the fluorescence emission intensities of the FtsZ-BODIPY-GTPγS complex in the absence and presence of a given compound concentration, respectively, I∞ is the fluorescence emission intensity of the FtsZ-BODIPY-GTPγS complex in the presence of infinite compound concentration, [Compd]tot is the total compound concentration, and p is the Hill slope. […]

T1 sequence (P17865 whole entry): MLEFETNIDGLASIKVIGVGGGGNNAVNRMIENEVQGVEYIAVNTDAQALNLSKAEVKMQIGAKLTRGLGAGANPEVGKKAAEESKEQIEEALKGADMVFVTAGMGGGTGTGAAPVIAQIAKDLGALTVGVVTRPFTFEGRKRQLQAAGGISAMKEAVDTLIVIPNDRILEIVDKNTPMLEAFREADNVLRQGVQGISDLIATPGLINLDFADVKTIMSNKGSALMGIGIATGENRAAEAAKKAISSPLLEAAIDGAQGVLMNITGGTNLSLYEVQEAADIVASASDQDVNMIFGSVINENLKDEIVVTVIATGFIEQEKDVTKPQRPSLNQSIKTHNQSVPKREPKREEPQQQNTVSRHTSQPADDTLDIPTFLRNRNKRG

| Compound | MIC (MRSA; read-out: MIC vs. MRSA) [µg/mL] | other results |
| --- | --- | --- |
| COc1ccc2c(c[n+](C)c3c4cc5c(cc4ccc23)OCO5)c1OC [Chelerythrine] | – | MIC (MRSA; 24 h, read-out: MRSA MIC): 16 µg/mL; MIC (Bacillus subtilis): 4 µg/mL; Maximal Light Scattering (Bacillus subtilis FtsZ [1]): 2.83 a.u.; Time to Reach Half-Maximal Light Scattering (Bacillus subtilis FtsZ [1]): 205.3 s; MIC [2]: 8 µg/mL; MIC (Enterococcus faecalis): 32 µg/mL; MIC (Staphylococcus aureus): 8 µg/mL |
| COc1cc2ccc3c4ccc5c(c4c[n+](C)c3c2cc1OC)OCO5 [Comparative Example 1, reference compound] | 32 | – |
| COc1cc2ccc3c4ccc(OC)c(OC)c4c[n+](C)c3c2cc1OC [Comparative Example 2, reference compound] | 64 | – |
| COc1cc2c(ccc3c4ccc5c(c4c[n+](C)c23)OCO5)c(-c2ccc(-c3ccccc3)cc2)c1OC [Example 3, 8-Biphenyl-4-yl-9,10-dimethoxy-12-methyl-1,3-dioxa-12-azoniacyclopenta[a]chrysene chloride] | < 16 | MIC (MRSA; 24 h, read-out: MRSA MIC): 8 µg/mL; MIC (Bacillus subtilis): 2 µg/mL; Maximal Light Scattering (Bacillus subtilis FtsZ [1]): 1.76 a.u.; Time to Reach Half-Maximal Light Scattering (Bacillus subtilis FtsZ [1]): 600.5 s; MIC [2]: 4 µg/mL; MIC (Enterococcus faecalis): 16 µg/mL; MIC (Staphylococcus aureus): 2 µg/mL; fluorescence of FtsZ-bound BODIPY-GTPγS upon addition of compound (Bacillus subtilis FtsZ [3]): decreases |
| COc1cc2c(ccc3c4ccc5c(c4c[n+](C)c23)OCO5)c(-c2ccccc2)c1OC [Example 4] | < 16 | – |
| COc1cc2c(ccc3c4ccc5c(c4c[n+](C)c23)OCO5)c(Cc2ccccc2)c1OC [Example 5] | < 16 | – |
| COc1ccc(-c2c(OC)c(OC)cc3c2ccc2c4ccc5c(c4c[n+](C)c32)OCO5)cc1 [Example 6] | < 16 | – |
| COc1cc2c(ccc3c4ccc(OC)c(OC)c4c[n+](C)c23)c(-c2ccc(-c3ccccc3)cc2)c1OC [Example 7] | < 16 | – |
| COc1cc2c(ccc3c4ccc(OC)c(OC(C)C)c4c[n+](C)c23)c(-c2ccccc2)c1OC [Example 8] | < 16 | – |
| COc1cc2c(ccc3c4ccc(OC)c(OC)c4c[n+](C)c23)c(C2=CCCCC2)c1OC [Example 9] | < 16 | – |
| COc1cc2c(ccc3c4ccc(OC)c(OC)c4c[n+](C)c23)c(C2CCCCC2)c1OC [Example 10] | < 16 | – |
| COc1cc2c(ccc3c4ccc(OC)c(OC)c4c[n+](C)c23)c(C2CC2)c1OC [Example 11] | < 16 | – |
| COc1cc2c(ccc3c4ccc(OC)c(OC)c4c[n+](C)c23)c(-c2ccccc2)c1OC [Example 12] | < 16 | – |
| COc1cc2c(-c3ccc(-c4ccccc4)cc3)cc3c4ccc5c(c4c[n+](C)c3c2cc1OC)OCO5 [Example 13] | < 16 | – |
| COc1cc2c(-c3ccccc3)cc3c4ccc(OC)c(OC)c4c[n+](C)c3c2cc1OC [Example 14] | < 16 | – |
| COc1cc(-c2c(OC)c(OC)cc3c2ccc2c4ccc(OC)c(OC)c4c[n+](C)c32)cc(OC)c1OC [Example 15] | < 16 | – |
| COc1cc2c(ccc3c4ccc(OC)c(OC)c4c[n+](C)c23)c(-c2ccc(N(C)C)cc2)c1OC [Example 16] | < 16 | – |
| COc1cc2c(ccc3c4ccc(OC)c(OC)c4c[n+](C)c23)c(-c2ccoc2)c1OC [Example 17] | < 16 | – |
| COc1cc2c(ccc3c4ccc(OC)c(OC)c4c[n+](C)c23)c(-c2ccc(S(=O)(=O)N(C)C)cc2)c1OC [Example 18] | < 16 | – |
| COc1cc2c(ccc3c4ccc(OC)c(OC)c4c[n+](C)c23)c(-c2ccc(CCN3CCOCC3)cc2)c1OC [Example 19] | < 16 | – |
| COc1ccc2c(c1OC)CN(C)c1c-2ccc2c(-c3ccc(-c4ccccc4)cc3)c(OC)c(OC)cc12 [Example 20] | < 16 | – |
| COc1ccc2c(c1OC)CN(C)c1c-2ccc2c(C3CC3)c(OC)c(OC)cc12 [Example 21] | < 16 | – |
| COc1cc2c(ccc3c4ccc(OC)c(OC)c4c[n+](C)c23)c(-c2cccnc2)c1OC [Example 22] | < 16 | – |
| COc1cc2c(-c3ccc(-c4ccccc4)cc3)cc3c4ccc(OC)c(OC)c4c[n+](C)c3c2cc1OC [Example 23] | < 16 | – |
| COc1ccc2c(c1OC)C(N)N(C)c1c-2ccc2c(-c3ccc(-c4ccccc4)cc3)c(OC)c(OC)cc12 (stereo not drawn) [Example 24] | < 16 | – |
| COc1ccc2c(c1OC)C(OC)N(C)c1c-2ccc2c(-c3ccc(-c4ccccc4)cc3)c(OC)c(OC)cc12 (stereo not drawn) [Example 25] | < 16 | – |
| C[n+]1cc2c3c(ccc2c2ccc4cc5c(cc4c21)OCO5)OCO3 [Sanguinarine] | – | MIC (MRSA; 24 h, read-out: MRSA MIC): 16 µg/mL; MIC (Bacillus subtilis): 4 µg/mL; MIC [2]: 8 µg/mL; MIC (Enterococcus faecalis): 32 µg/mL; MIC (Staphylococcus aureus): 8 µg/mL |
